Series [1] deals with Spodoptera litura. The series can be described thus: Insecticidal effect for Spodoptera litura by spraying treatment to host crop (Test Example 2). Format: in vivo. As to conditions: 100 ppm, sprayed on soybean, third-instar larvae of Spodoptera litura, fifth day after; for pest or weed control at 100 ppm: 120 h, read-out: rate of dead pests (%). Put shortly: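 Soybean plants with fully developed primary leaves sprayed to runoff with 100 ppm compound (acetone/Tween 20, sticker water). Dried leaves given to ten third-instar larvae at 25° C.; survivors counted on day 5, mortality as dead/tested × 100.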

Series [2] has as its system Spodoptera litura. The series can be described thus: Insecticidal effect for Spodoptera litura by immersion treatment of host crop root (Test Example 4). Format: in vivo. The settings on record: 25 ppm, soybean root immersion 5 days, second-instar larvae of Spodoptera litura, fifth day after; for pest or weed control at 25 ppm: 120 h, read-out: rate of dead pests (%). The essentials: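 Soil was washed from the roots of soybean plants at the primary-leaf stage, and the roots were immersed in a pesticidal solution held in a light-shielded 100 ml Erlenmeyer flask. The solution was made from acetone containing Tween 20, diluted with ion-exchange water. Five days after root immersion, two primary leaves were cut and placed in a 180 ml cup with ten second-instar Spodoptera litura larvae, then kept at 25° C. Survivors were counted five days later. The rate of dead pests (%) was calculated as dead pests divided by test pests, times 100.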

Series [3] relates to Plutella xylostella. Briefly: Pest control effect for Plutella xylostella by plant seedling foot soil surface irrigation treatment, 30th day (Test Example 7). In kind it is in vivo. As to conditions: 20 mg/plant; soil surface irrigation of cabbage; larvae counted on the 30th day. The procedure: (§1) Pest Control Effect for Plutella xylostella by Plant Seedling Foot Soil Surface Irrigation Treatment With Pesticidal Solution
(§2) A pesticidal solution which was prepared by dissolving 20 mg of test compound (represented by the compound Nos. in the above Examples) in 0.2 ml of acetone containing Tween 20 (trade name) and then diluting to 3 ml with ion-exchange water, was irrigated on the plant foot soil surface of 2.5-leave stage cabbage. This cabbage plant was transplanted to 1/5000a pot, and left in a facility wherein imagoes of Plutella xylostella were set free to lay eggs successively. On the 30th day after, the number of lavae on the plant was examined. The rate of pest control was calculated by the following formula. rate of pest control (%)=(1−number of pests in treated plant/number of pests in non-treated plant)×100

Series [4] concerns Plutella xylostella. Briefly: Insecticidal effect for Plutella xylostella by immersion treatment of host crop (Test Example 1). In kind it is in vivo. The settings on record: cabbage leaf dipped, second-instar larvae of Plutella xylostella, fifth day after; for rate of dead pests (%): 100 ppm; for pest or weed control at 100 ppm: foliar, 120 h, read-out: rate of dead pests (%). Put shortly:
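Cabbage leaf discs dipped in 100 ppm compound (acetone/Tween 20, diluted in sticker water), dried, then infested with ten second-instar larvae and kept at 24° C. Survivors counted on day 5; mortality expressed as dead/tested pests ×100.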

Series [5] relates to Plutella xylostella. Briefly: Pest control effect for Plutella xylostella by plant seedling foot soil surface irrigation treatment, 24th day (Test Example 6). The settings on record: 20 mg/plant; soil surface irrigation of cabbage; larvae counted on the 24th day. Format: in vivo. The procedure:
as §1
as §2, with “24th” for “30th”, “non-treated-plant)×100” for “non-treated plant)×100”

Series [6] has as its system Plutella xylostella. Briefly: Insecticidal effect for Plutella xylostella by immersion treatment of host crop root (Test Example 3). In kind it is in vivo. As to conditions: 25 ppm, cabbage root immersed 5 days, ten second-instar larvae on stem and leaves, counted on the fifth day, 24° C. The procedure:
Insecticidal Effect for Plutella xylostella by Immersion Treatment of Host Crop Root
Roots of 4-leave stage cabbage was washed with tap water to remove soil, and then immersed in a pesticidal solution which was prepared by dissolving 5 mg of test compound (represented by the compound Nos. in the above Examples) in 0.5 ml of acetone containing Tween 20 (trade name) and then diluting it to the prescribed concentration (25 ppm) with ion-exchange water, and which was filled in a light-shielded Erlenmeyer flask (100 ml). On the fifth day after immersion of root, the root was cut off, and the stem and leaves were put into an ice cream cup (180 ml). Ten second-instar larvae of Plutella xylostella were set free therein, and the cup was left in a temperature-controlled breeding room (24° C.). On the fifth day after, the number of surviving Plutella xylostella was examined. The rate of dead pests was calculated by the following formula. rate of dead pests (%)=(number of dead pests/number of test pests)×100

In series [7] the test system is Tetranychus urticae. The series can be described thus: Acaricidal effect for Tetranychus urticae (Test Example 5). Format: in vivo. The settings on record: 100 ppm (table); spray on kidney bean with ten female imagoes; survivors counted on second and seventh day, 25° C. The procedure: Acaricidal Effect for Tetranychus urticae
Ten female imagoes Tetranychus urticae were set free on a kidney bean wherein primary leaves had just developed. On the following day, a pesticidal solution, which was prepared by dissolving 5 mg of test compound (represented by the compound Nos. in the above Examples) in 0.5 ml of acetone containing Tween 20 ([…]) with Dain (trade name, sticker) water diluted 5000-fold, was sprayed with spray gun in the amounts wherein the pesticidal solution dripped. The kidney bean was left in a temperature-controlled breeding room (25° C.). On the second and seventh day after treatment, the number of surviving Tetranychus urticae was examined. The rate of decrease was calculated by the following formula. rate of decrease (%)=(1−(S2/(5.59×(10+(10+S1)/2+S1))))×100 In the above formula, • S1; the number of surviving imagoes on the second day after • S2; the number of surviving pests on the seventh day after […]

On to `O=C(c1c(F)cccc1F)N1COCN(c2ccc([S+]([O-])C(F)(F)F)cc2F)C1=O` (stereo not shown) [I-45, 3-(2,6-difluorobenzoyl)-5-[2-fluoro-4-(trifluoromethylsulfinyl)phenyl]tetrahydro-4H-1,3,5-oxadiazin-4-one], for which the pest or weed control at 100 ppm in series [1] amounted to 100%. Further, the pest or weed control at 25 ppm in series [2] stood at 100%. The “rate of pest control (%)” value in series [3] amounted to 98%.

`O=C(c1c(F)cccc1F)N1CNCN(c2ccc(SC(F)(F)C(F)Cl)cc2F)C1=O` (stereo not shown) [III-78]: the “rate of dead pests (%)” value in series [4] and in series [1] was 100% each time. In addition, the “rate of pest control (%)” value in series [5] is reported as 83%.

Regarding `CN1CN(C(=O)c2c(F)cccc2F)C(=O)N(c2ccc([S+]([O-])C(F)(F)F)cc2F)C1` (stereo not shown) [III-164, 1-(2,6-difluorobenzoyl)-3-[2-fluoro-4-(trifluoromethylsulfinyl)phenyl]-5-methyltetrahydro-1,3,5-triazin-2(1H)-one], the pest or weed control at 100 ppm in series [4] and in series [1] was 100% throughout. In addition, in series [2], the pest or weed control at 25 ppm was 100%. The “rate of pest control (%)” value in series [3] amounted to 95%.

In the case of `O=C(c1c(F)cccc1F)N1CSCN(c2cc(Cl)c(F)c(Cl)c2F)C1=O` [II-10], the “rate of dead pests (%)” value in series [4], in series [1] and in series [2] was 100% throughout. Also, the “rate of pest control (%)” value in series [5] is 88%.

Turning to `O=C(O)C(=O)N1CN(C(=O)c2c(F)cccc2F)C(=O)N(c2ccc(Oc3ccc(C(F)(F)F)cc3Cl)cc2F)C1` [III-38, 2-[3-[4-(2-chloro-4-trifluoromethylphenoxy)-2-fluorophenyl]-5-(2,6-difluorobenzoyl)hexahydro-4-oxo-1,3,5-triazin-1-yl]-2-oxoacetic Acid], the pest or weed control at 100 ppm in series [1] amounted to 100%. Besides, the pest or weed control at 25 ppm in series [6] (Plutella xylostella, 120 h, read-out: rate of dead pests (%)) worked out at 90%; in series [2] it was 100%. In addition, the “rate of decrease (%)” value in series [7] came to 98%.

In turn, `O=C(c1c(F)cccc1F)N1CSCN(c2ccc(Cl)cc2)C1=O` [II-1, 3-(4-chlorophenyl)-5-(2,6-difluorobenzoyl)tetrahydro-4H-1,3,5-thiadiazin-4-one] yielded a melting point of 128.5 to 130.5 °C.

`O=C(c1c(F)cccc1F)N1COCN(c2cc(Cl)c(F)c(Cl)c2F)C1=O` [I-4]: the “rate of dead pests (%)” value in series [1] worked out at 100%; in series [6] it was 95%; in series [2], 100%. In addition, the “rate of pest control (%)” value in series [5] turned out to be 92%.

`O=C(c1c(F)cccc1F)N1COCN(c2ccc(SC(F)(F)F)cc2)C1=O` [I-25]: the “rate of dead pests (%)” value in series [4] is on record as 100%. In addition, the “rate of pest control (%)” value in series [5] was 88%.

On to `O=C(c1c(F)cccc1F)N1COCN(c2ccc([S+]([O-])C(F)(C(F)(F)F)C(F)(F)F)cc2F)C1=O` (stereo not shown) [I-159, 3-(2,6-difluorobenzoyl)-5-[2-fluoro-4-(1,1,1,2,3,3,3-heptafluoro-2-propylsulfinyl)phenyl]tetrahydro-4H-1,3,5-oxadiazin-4-one], for which the melting point is 40 to 45 °C.

The compound `CC(C)N1CN(C(=O)c2c(F)cccc2F)C(=O)N(c2ccc(Cl)cc2)C1` [III-3, 1-(4-chlorophenyl)-3-(2,6-difluorobenzoyl)-5-isopropyltetrahydro-1,3,5-triazin-2(1H)-one] yielded a melting point of 130 to 131 °C.

The compound `O=C(c1c(F)cccc1F)N1C[S+]([O-])CN(c2ccc(Cl)cc2)C1=O` (stereo not shown) [II-2, 3-(4-chlorophenyl)-5-(2,6-difluorobenzoyl)tetrahydro-4H-1,3,5-thiadiazin-4-one-1-oxide] had a melting point of 220 to 220.5 °C.

Turning to `CN1CN(C(=O)c2c(F)cccc2F)C(=O)N(c2ccc([S+]([O-])C(F)(F)C(F)Cl)cc2F)C1` (stereo not shown) [III-84], the “rate of dead pests (%)” value in series [4] and in series [1] was 100% throughout. Besides, the “rate of pest control (%)” value in series [5] came to 100%.

Take `CC(C)N1CN(C(=O)c2c(F)cccc2F)C(=O)N(c2ccc(Oc3ccc(C(F)(F)F)cc3Cl)cc2F)C1` [III-25]: the “rate of dead pests (%)” value in series [4] and in series [1] was 100% throughout. Also, the “rate of decrease (%)” value in series [7] was 97%.

As to `NC(=O)C(=O)N1CN(C(=O)c2c(F)cccc2F)C(=O)N(c2ccc(Oc3ccc(C(F)(F)F)cc3Cl)cc2F)C1` [III-41], the “rate of dead pests (%)” value in series [4] and in series [1] was 100% in each case. Besides, the “rate of decrease (%)” value in series [7] was found to be 97%.

As for `C[S+]([O-])c1ccc(N2COCN(C(=O)c3c(F)cccc3F)C2=O)c(F)c1` (stereo not shown) [I-29], the “rate of dead pests (%)” value in series [4], in series [1], in series [6] and in series [2] was 100% each time. For the same compound, in series [5], the “rate of pest control (%)” value is reported as 92%.

Regarding `O=C(c1c(F)cccc1F)N1COCN(c2ccc([S+]([O-])C(F)(F)F)cc2)C1=O` (stereo not shown) [I-26], the “rate of dead pests (%)” value in series [4], in series [1], in series [6] and in series [2] was 100% throughout. In series [5], the “rate of pest control (%)” value was determined as 100%.

`O=C(c1c(F)cccc1F)N1CS(=O)(=O)CN(c2ccc(Cl)cc2)C1=O` [II-3, 3-(4-chlorophenyl)-5-(2,6-difluorobenzoyl)tetrahydro-4H-1,3,5-thiadiazin-4-one-1,1-dioxide]: the melting point is 274 to 275 °C.

Consider `C#CCN1CN(C(=O)c2c(F)cccc2F)C(=O)N(c2ccc([S+]([O-])C(F)(F)C(F)Cl)cc2F)C1` (stereo not shown) [III-89], for which the “rate of dead pests (%)” value in series [4], in series [1] and in series [6] was 100% in each case. Besides, the “rate of pest control (%)” value in series [5] is 92%.

On to `O=C(c1c(F)cccc1F)N1CNCN(c2ccc(Oc3ccc(C(F)(F)F)cc3Cl)cc2F)C1=O` [III-27, 1-[4-(2-chloro-4-trifluoromethylphenoxy)-2-fluorophenyl]-3-(2,6-difluorobenzoyl)tetrahydro-1,3,5-triazin-2(1H)-one], for which the pest or weed control at 100 ppm in series [4] and in series [1] was 100% each time. Moreover, in series [7], the “rate of decrease (%)” value stood at 96%.

For the compound `C=CCN1CN(C(=O)c2c(F)cccc2F)C(=O)N(c2ccc(Oc3ccc(C(F)(F)F)cc3Cl)cc2F)C1` [III-24], the “rate of dead pests (%)” value in series [4] and in series [1] was 100% in each case. For the same compound, the “rate of decrease (%)” value in series [7] was 95%.
